In US8846654B2, “Therapeutic applications in the cardiovascular field of quinazolinedione derivatives” (Sanofi, priority 2009, dated 2014):

System: PDE8
Experiment: PDE8 enzymatic assay equivalent to that described for PDE7
Assay type: biochemical
Details: not given
From the text: 2) Measurement of the Inhibitory Activity of the Compounds in Accordance with the Invention with Regard to PDE8

**Q.** COc1ccc(Cn2c(=O)c3cc(OC(CF)CF)ccc3n(C3CCN(C=O)CC3)c2=O)cc1OC [No. 11, 4-[3-(3,4-dimethoxybenzyl)-6-[2-fluoro-1-(fluoromethyl)ethoxy]-2,4-dioxo-3,4-dihydroquinazolin-1(2H)-yl]piperidine-1-carbaldehyde] was tested. Which IC50 did it give?
**A.** The IC50 was 140 nM.

**Q.** How did the IC50 turn out when N#Cc1cc(Cn2c(=O)c3cc(OC(CF)CF)ccc3n(C3CCN(C=O)CC3)c2=O)ccc1-c1ccccc1 [No. 294, 4-({6-[2-fluoro-1-(fluoromethyl)ethoxy]-1-(1-formylpiperidin-4-yl)-2,4-dioxo-1,4-dihydroquinazolin-3(2H)-yl}methyl)biphenyl-2-carbonitrile] was run?
**A.** The IC50 was 15 nM.

System: Male C57B6 mice
Experiment: Murine model of myocardial infarction resulting from an ischemia-reperfusion episode
Assay type: in vivo
Details: 3 mg/kg intravenously 5 minutes before reperfusion; 45 min coronary occlusion, 24 hours of reperfusion; compared with the vehicle
Description: 3) Evaluation of the Compounds in Accordance with the Invention in a Murine Model of Myocardial Infarction Resulting from an Ischemia-Reperfusion Episode
Male C57B6 mice (23-26 g) are anaesthetized (ketamine 1 g/kg+xylazine 0.02 g/kg, IP) and placed under respiratory assistance before being subjected to a thoracotomy targeted at exposing the heart. Cardiac ischemia is then induced by the transient ligation of the left coronary artery. After 45 minutes of coronary occlusion, the ligature is removed in order to make possible reperfusion of the region rendered ischemic. After closing the thorax and restoring the pleural cavity, the animals are placed in a revival cage.
Test compounds Nos 11, 56, 233 and 309 are administered 5 minutes before reperfusion intravenously at a dose of 3 mg/kg and compared with the vehicle (7.5% Cremophor RH40+22.5% glycofurol in a physiological serum solution).
After 24 hours of cardiac reperfusion, the animals are again anaesthetized (ketamine 1 g/kg+xylazine 0.02 g/kg, IP) before intravenously receiving sodium nitroprusside (1 mg/ml at 1 ml/min for 4 minutes) in order to dilate the coronary vasculature. The left coronary artery is religatured and a solution of Evans blue (3%, 200 to 300 μl) is injected by carotid retroperfusion in order to determine the region at ventricular risk. The heart is then removed and immersed in a saturated KCl solution in order to stop it in diastole. Transverse sections of 1 mm are produced, incubated in triphenyltetrazolium chloride (1% in PBS) at 37° C. for 2 minutes and then placed in formaldehyde (4%) overnight. The tetrazolium salt makes it possible to visualize the viable region within the region at risk. The surface area of the infarction with respect to the region at risk is determined by image analysis.

**Q.** COc1ccc(Cn2c(=O)c3cc(OC(CF)CF)ccc3n(C3CCN(C=O)CC3)c2=O)cc1OC [No. 11, 4-[3-(3,4-dimethoxybenzyl)-6-[2-fluoro-1-(fluoromethyl)ethoxy]-2,4-dioxo-3,4-dihydroquinazolin-1(2H)-yl]piperidine-1-carbaldehyde] was tested. Which “reduction of the size of the infarction, expressed with respect to the region at risk” value (from here on “reduction of the size of the infarction”) did it give?
**A.** The value was 43%.

**Q.** Which “reduction of the size of the infarction” value does the source give for COc1cc(Cn2c(=O)c3cc(OC(CF)CF)ccc3n(C3CCN(C=O)CC3)c2=O)ccc1OC1CCCC1 [No. 56, 4-{3-[4-(cyclopentyloxy)-3-methoxybenzyl]-6-[2-fluoro-1-(fluoromethyl)ethoxy]-2,4-dioxo-3,4-dihydroquinazolin-1(2H)-yl}piperidine-1-carbaldehyde] here?
**A.** The value was 33%.

**Q.** COc1ccc(Cn2c(=O)c3cc(OC(CF)CF)c(F)cc3n(C3CCN(C=O)CC3)c2=O)cc1OC [No. 233, 4-[3-(3,4-dimethoxybenzyl)-7-fluoro-6-[2-fluoro-1-(fluoromethyl)ethoxy]-2,4-dioxo-3,4-dihydroquinazolin-1(2H)-yl]piperidine-1-carbaldehyde] was tested. Which “reduction of the size of the infarction” value did it give?
**A.** Its value is 40%.

**Q.** COc1cc(Cn2c(=O)c3cc(OC(CF)CF)c(F)cc3n(C3CCN(C=O)CC3)c2=O)ccc1OCC1CC1 [No. 309, 4-{3-[4-(cyclopropylmethoxy)-3-methoxybenzyl]-7-fluoro-6-[2-fluoro-1-(fluoromethyl)ethoxy]-2,4-dioxo-3,4-dihydroquinazolin-1(2H)-yl}piperidine-1-carbaldehyde] was tested. Which “reduction of the size of the infarction” value did it give?
**A.** Its value is 32%.
